According to ChEMBL document CHEMBL1137244, “Ureas with histamine H3-antagonist receptor activity--a new scaffold discovered by lead-hopping from cinnamic acid amides” (Bioorg Med Chem Lett, 2006):

Legend:
[1] = molecular target: Histamine H3 receptor (Homo sapiens, UniProt Q9Y5N1); experiment: Binding affinity at histamine H3 receptor by hH3-[35S]GTPgamma[S] binding assay; format: functional
[2] = molecular target: hERG (KCNH2) (Homo sapiens, UniProt Q12809); experiment: in vitro
[3] = molecular target: T1, Cytochrome P450 1A2 (Homo sapiens, UniProt P05177)
T1 sequence (P05177 whole entry): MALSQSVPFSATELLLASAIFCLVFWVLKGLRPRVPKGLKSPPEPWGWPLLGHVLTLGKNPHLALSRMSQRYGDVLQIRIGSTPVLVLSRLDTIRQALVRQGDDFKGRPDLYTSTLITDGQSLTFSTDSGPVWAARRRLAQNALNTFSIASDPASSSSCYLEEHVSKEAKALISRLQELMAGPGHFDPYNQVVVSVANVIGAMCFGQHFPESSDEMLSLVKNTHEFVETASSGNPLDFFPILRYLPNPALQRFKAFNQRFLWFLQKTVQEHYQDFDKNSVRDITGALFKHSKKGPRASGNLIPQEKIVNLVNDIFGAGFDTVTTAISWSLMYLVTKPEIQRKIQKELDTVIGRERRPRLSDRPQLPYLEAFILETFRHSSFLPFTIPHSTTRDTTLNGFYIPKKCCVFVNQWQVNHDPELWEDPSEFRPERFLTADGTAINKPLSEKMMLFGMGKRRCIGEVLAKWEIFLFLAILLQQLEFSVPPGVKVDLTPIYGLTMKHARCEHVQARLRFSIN

[4] = molecular target: Cytochrome P450 3A4 (Homo sapiens, UniProt P08684)
Chain of Cytochrome P450 3A4 (P08684 whole entry): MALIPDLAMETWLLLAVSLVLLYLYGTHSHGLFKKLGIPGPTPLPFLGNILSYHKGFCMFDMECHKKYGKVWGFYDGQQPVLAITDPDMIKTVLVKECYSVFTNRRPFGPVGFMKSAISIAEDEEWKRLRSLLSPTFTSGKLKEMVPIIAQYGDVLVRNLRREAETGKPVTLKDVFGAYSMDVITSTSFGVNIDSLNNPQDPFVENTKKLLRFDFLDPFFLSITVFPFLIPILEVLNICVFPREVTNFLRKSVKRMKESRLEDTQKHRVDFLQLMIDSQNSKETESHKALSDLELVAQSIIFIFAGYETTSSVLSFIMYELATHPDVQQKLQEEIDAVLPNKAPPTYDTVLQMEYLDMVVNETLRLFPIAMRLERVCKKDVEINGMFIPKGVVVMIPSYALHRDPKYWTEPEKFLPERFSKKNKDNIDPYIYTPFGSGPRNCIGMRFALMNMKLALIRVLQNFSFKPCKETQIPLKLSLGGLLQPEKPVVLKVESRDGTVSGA

[5] = molecular target: Cytochrome P450 2D6 (Homo sapiens, UniProt P10635)
Chain of Cytochrome P450 2D6 (P10635 whole entry): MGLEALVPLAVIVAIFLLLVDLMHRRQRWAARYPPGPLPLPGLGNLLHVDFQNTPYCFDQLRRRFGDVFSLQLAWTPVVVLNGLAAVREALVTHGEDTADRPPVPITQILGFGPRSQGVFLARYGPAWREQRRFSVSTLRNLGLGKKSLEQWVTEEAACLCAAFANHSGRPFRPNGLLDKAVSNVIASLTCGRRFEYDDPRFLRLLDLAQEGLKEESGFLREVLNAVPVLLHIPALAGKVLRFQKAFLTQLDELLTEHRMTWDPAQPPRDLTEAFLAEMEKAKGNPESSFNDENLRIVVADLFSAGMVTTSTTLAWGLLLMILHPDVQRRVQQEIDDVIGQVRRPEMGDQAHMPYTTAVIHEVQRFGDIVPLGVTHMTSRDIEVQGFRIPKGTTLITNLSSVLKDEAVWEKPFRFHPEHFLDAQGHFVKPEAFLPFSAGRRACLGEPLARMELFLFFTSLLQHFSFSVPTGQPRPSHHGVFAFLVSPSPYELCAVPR

[6] = HEK293 cells that express hERG, probe [3H]astemizole

Chain of Histamine H3 receptor (Q9Y5N1 whole entry): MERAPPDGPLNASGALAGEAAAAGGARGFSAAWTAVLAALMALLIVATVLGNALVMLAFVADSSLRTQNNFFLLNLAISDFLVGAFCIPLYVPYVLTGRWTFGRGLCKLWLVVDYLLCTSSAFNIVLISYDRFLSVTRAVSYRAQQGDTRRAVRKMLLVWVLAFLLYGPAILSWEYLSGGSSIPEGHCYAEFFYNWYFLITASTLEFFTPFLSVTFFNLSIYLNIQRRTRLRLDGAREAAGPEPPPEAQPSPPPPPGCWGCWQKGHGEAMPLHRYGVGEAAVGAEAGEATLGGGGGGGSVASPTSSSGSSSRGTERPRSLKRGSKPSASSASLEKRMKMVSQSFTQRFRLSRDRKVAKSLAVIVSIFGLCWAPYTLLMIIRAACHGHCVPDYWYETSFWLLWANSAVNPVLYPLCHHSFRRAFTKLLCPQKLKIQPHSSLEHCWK
Chain of hERG (KCNH2) (Q12809 whole entry): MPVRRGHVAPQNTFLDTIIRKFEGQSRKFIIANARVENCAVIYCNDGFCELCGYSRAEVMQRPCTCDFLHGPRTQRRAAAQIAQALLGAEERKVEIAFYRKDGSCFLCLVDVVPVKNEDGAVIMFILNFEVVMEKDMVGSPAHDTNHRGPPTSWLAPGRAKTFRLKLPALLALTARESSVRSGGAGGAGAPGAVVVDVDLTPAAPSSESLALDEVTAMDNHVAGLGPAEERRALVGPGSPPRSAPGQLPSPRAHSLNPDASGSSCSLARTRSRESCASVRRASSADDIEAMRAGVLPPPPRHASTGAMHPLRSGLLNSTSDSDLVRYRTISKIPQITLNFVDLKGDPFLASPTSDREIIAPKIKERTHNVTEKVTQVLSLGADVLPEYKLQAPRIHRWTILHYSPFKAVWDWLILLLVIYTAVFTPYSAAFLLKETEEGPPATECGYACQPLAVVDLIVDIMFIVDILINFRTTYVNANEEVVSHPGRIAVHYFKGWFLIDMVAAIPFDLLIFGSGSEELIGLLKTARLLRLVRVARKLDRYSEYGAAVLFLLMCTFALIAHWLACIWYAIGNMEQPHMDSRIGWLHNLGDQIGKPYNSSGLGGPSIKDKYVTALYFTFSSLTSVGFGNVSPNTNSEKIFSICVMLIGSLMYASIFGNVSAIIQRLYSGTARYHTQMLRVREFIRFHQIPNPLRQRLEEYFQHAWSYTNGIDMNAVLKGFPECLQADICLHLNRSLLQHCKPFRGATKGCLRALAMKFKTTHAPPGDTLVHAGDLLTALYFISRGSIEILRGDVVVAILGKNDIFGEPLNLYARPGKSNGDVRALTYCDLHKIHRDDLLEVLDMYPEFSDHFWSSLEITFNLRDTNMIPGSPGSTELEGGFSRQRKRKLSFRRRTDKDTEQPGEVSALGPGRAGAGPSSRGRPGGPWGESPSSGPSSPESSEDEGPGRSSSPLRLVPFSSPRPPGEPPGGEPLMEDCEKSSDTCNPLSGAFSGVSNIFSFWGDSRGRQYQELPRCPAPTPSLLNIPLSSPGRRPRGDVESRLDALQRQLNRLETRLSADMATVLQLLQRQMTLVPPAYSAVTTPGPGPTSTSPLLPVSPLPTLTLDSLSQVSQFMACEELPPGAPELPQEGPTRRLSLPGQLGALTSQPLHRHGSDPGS

SMILES | Ki [1] | also measured
O=C(NC1Cc2ccccc2C1)N1CCC[C@H]1CN1CCCC1 | 52 nM (antagonist) | 
CN(Cc1ccc(-c2ccccc2)cc1)C(=O)N1CCC[C@H]1CN1CCCC1 |  | inhibition at 10 µM [2, 6]: 66%
O=C(NCc1ccc(OC(F)(F)F)cc1)N1CCC[C@H]1CN1CCCC1 | 121 nM (antagonist) | 
O=C(NCC1CCCCC1)N1CCC[C@H]1CN1CCCC1 | 458 nM (antagonist) | 
O=C(NCc1ccc(Cl)c(Cl)c1)N1CCC[C@H]1CN1CCCC1 | 47 nM (antagonist) | 
CC(C)N1CCN(C(=O)N2CCC(C(=O)OC(C)(C)C)CC2)CC1 |  | IC50 [3]: > 25000 nM; IC50 [4]: > 25000 nM; IC50 [5]: > 25000 nM; inhibition at 10 µM [2, 6]: 9%
COc1ccc(CNC(=O)N2CCC[C@H]2CN2CCCC2)cc1 | 295 nM (antagonist) | 
CCN1CCN(C(=O)N[C@@H]2C[C@H]2c2ccccc2)CC1 | 40 nM (antagonist) | 
CC(C)N1CCN(C(=O)N2CCC(C(=O)N3CC4CCC(CC4)C3)CC2)CC1 |  | IC50 [3]: > 25000 nM; IC50 [4]: > 25000 nM; IC50 [5]: > 25000 nM; inhibition at 10 µM ([2]; hek293): 8%
O=C(NCc1ccc(Oc2ccccc2)cc1)N1CCN(C2CCCC2)CC1 | 38 nM (antagonist) | 
O=C(NCc1ccc(-c2ccccc2)cc1)N1CCC[C@H]1CN1CCCC1 | 87 nM (antagonist) | 
O=C(/C=C/c1ccc(OC(F)(F)F)cc1)N1CCC[C@H]1CN1CCCC1 | 13.4 nM (antagonist) | 
O=C(NCc1cccc(C(F)(F)F)c1)N1CCC[C@H]1CN1CCCC1 | 117 nM (antagonist) | 
O=C(NCc1ccc(Cl)c(Cl)c1)N1CCN(C2CCCC2)CC1 | 15 nM (antagonist) | 
O=C(/C=C/c1ccc(Cl)cc1)N1CCC[C@H]1CN1CCCC1 | 11.2 nM (antagonist) | 
COc1cc2c(cc1OC)CN(C(=O)N1CCN(C(C)C)CC1)CC2 |  | inhibition at 10 µM [2, 6]: 8%
COc1cccc(CNC(=O)N2CCC[C@H]2CN2CCCC2)c1 | 188 nM (antagonist) | 
CC(C)N1CCN(C(=O)N(C)Cc2ccc(-c3ccccc3)cc2)CC1 | 37 nM (antagonist) | inhibition at 10 µM [2, 6]: 55%
CC(C)N1CCN(C(=O)N2CCC(Cc3ccccc3)CC2)CC1 |  | inhibition at 10 µM ([2]; hek293): 21%

SMILES | Ki [1] | also measured
CC(C)N1CCN(C(=O)NC2Cc3ccccc3C2)CC1 | 30 nM (antagonist) | 
O=C(/C=C/c1ccc(-c2ccccc2)cc1)N1CCC[C@H]1CN1CCCC1 | 3.7 nM (antagonist) | 
O=C(NCc1ccccc1)N1CCN(C2CCCC2)CC1 | 94 nM (antagonist) | 
CC(C)N1CCN(C(=O)N2CCC(NC(=O)C3CCCC3)CC2)CC1 |  | IC50 [3]: > 25000 nM; IC50 [4]: > 25000 nM; IC50 [5]: 17000 nM; inhibition at 10 µM ([2]; hek293): 6%
CCN1CCN(C(=O)NC2Cc3ccccc3C2)CC1 | 44 nM (antagonist) | 
O=C(N1CCN(C2CC2)CC1)N1Cc2ccccc2C1 |  | inhibition at 10 µM [2, 6]: 16%
CC(C)N1CCN(C(=O)NCc2ccc(Cl)c(Cl)c2)CC1 | 20 nM (antagonist) | 
CC(C)N1CCN(C(=O)N2CC=C(c3ccccc3)CC2)CC1 |  | inhibition at 10 µM ([2]; hek293): 31%
NCc1cccc(CNC(=O)N2CCC[C@H]2CN2CCCC2)c1 | 78 nM (antagonist) | 
NCc1ccc(CNC(=O)N2CCC[C@H]2CN2CCCC2)cc1 | 109 nM (antagonist) | 
O=C(NC1Cc2ccccc2C1)N1CCN(C2CCCC2)CC1 | 29 nM (antagonist) | 
O=C(N1Cc2ccccc2C1)N1CCC[C@H]1CN1CCCC1 |  | inhibition at 10 µM [2, 6]: 26%
O=C(NCc1ccccc1)N1CCC[C@H]1CN1CCCC1 | 196 nM (antagonist) | 
O=C(NCc1ccc(Oc2ccccc2)cc1)N1CCC[C@H]1CN1CCCC1 | 34 nM (antagonist) | 
O=C(NCCc1ccccc1)N1CCC[C@H]1CN1CCCC1 | 226 nM (antagonist) | 
O=C(NCc1ccc(Cl)cc1)N1CCC[C@H]1CN1CCCC1 | 165 nM (antagonist) | 
O=C(N1CCN(C2CCCC2)CC1)N1Cc2ccccc2C1 |  | inhibition at 10 µM [2, 6]: 45%
CC(C)N1CCN(C(=O)NCc2ccc(Oc3ccccc3)cc2)CC1 | 34 nM (antagonist) | 
